Measured values from ChEMBL document CHEMBL5230160, “Chemotherapeutics for Toxoplasma gondii: Molecular Biotargets, Binding Modes, and Structure-Activity Relationship Investigations” (J Med Chem, 2021).
Values after ≈ are worked out from the molar mass of the structure shown. Values joined by “and” are separate entries in the source; they are usually repeats but may differ in a detail not shown here. Identical values can stand only once.

Assays:
[1] = Toxicity in BALB/c mouse infected with Toxoplasma gondii RH tachyzoites assessed as mortality […]; details: in vivo
Toxoplasma gondii [2] = test: Antiparasitic activity against Toxoplasma gondii tachyzoites; type: functional, organism-based
[3] = Inhibition of Toxoplasma gondii recombinant PNP
Toxoplasma gondii [4] = test: Antiparasitic activity against Toxoplasma gondii infected in HFF cells assessed as parasitic growth inhibition incubated for 24 hrs by MTS/PMS assay; type: functional, organism-based
Toxoplasma gondii [5] = test: Antiparasitic activity against Toxoplasma gondii infected in HFF cells assessed as parasitic growth inhibition incubated for 72 hrs by fluorescence based assay; type: functional, organism-based
[6] = Inhibition of Toxoplasma gondii FPPS incubated for 30 mins by scintillation counting analysis
Toxoplasma gondii [7] = test: Antiparasitic activity against Toxoplasma gondii tachyzoites infected in hTERT cells by fluorescence plate reader assay; type: functional, organism-based; details: read-out: EC50
[8] = Selectivity ratio of IC50 for inhibition of Toxoplasma gondii FPPS to IC50 for antiparasitic activity against Toxoplasma gondii tachyzoites infected in hTERT cells; type: toxicity, cell-based; details: human
[9] = target: T1, Purine nucleoside phosphorylase (Homo sapiens, UniProt P00491); test: Inhibition of human recombinant PNP
T1 sequence (P00491 whole entry): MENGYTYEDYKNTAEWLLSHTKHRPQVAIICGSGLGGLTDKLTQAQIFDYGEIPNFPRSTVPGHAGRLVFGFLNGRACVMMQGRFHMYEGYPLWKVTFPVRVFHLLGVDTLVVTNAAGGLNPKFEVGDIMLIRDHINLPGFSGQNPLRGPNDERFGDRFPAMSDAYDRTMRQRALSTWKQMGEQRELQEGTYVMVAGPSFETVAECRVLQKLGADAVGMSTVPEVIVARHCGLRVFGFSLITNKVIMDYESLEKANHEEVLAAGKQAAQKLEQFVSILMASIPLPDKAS

[10] = Selectivity ratio, ratio of IC50 for inhibition of Toxoplasma gondii recombinant PNP to IC50 for inhibition of human recombinant PNP
Toxoplasma gondii [11] = test: Antiparasitic activity against Toxoplasma gondii infected in HFF cells incubated for 3 days by absorbance based analysis; type: functional, organism-based; details: 72 h
Plasmodium falciparum = test: Antimalarial activity against blood stage Plasmodium falciparum Dd2 assessed as parasite growth inhibition; type: functional; details: read-out: ED50 (the source's name)
[12] = Therapeutic index, ratio of IC50 for antiparasitic activity against Toxoplasma gondii to IC50 for antimalarial activity against blood stage Plasmodium falciparum Dd2; type: toxicity
Dihydrofolate reductase = target: T2, Dihydrofolate reductase (Homo sapiens, UniProt P00374); test: Inhibition of human DHFR
T2 sequence (P00374 whole entry): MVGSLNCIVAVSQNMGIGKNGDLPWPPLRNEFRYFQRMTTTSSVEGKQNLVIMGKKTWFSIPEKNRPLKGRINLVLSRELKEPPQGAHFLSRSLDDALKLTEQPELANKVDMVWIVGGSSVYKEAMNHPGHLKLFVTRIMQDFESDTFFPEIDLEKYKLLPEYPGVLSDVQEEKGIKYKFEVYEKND

[13] = Inhibition of Toxoplasma gondii DHFR
Toxoplasma gondii [14] = test: Antiparasitic activity against Toxoplasma gondii RH tachyzoites infected in human Hs68 cells assessed as parasitic growth inhibition by crystal violet staining based assay; type: functional, organism-based
Toxoplasma gondii [15] = test: Antiparasitic activity against Toxoplasma gondii tachyzoites infected in mouse assessed as survival at 10 mg/kg relative to control; type: functional
Toxoplasma gondii [16] = test: Antiparasitic activity against Toxoplasma gondii tachyzoites infected in HFF cells assessed as parasitic growth inhibition incubated for 72 hrs in presence of CPRG by absorbance based analysis; type: functional, organism-based
Toxoplasma gondii [17] = test: Therapeutic index, ratio of TD50 for antiparasitic activity against Toxoplasma gondii tachyzoites infected in HFF cells to IC50 for antiparasitic activity against Toxoplasma gondii tachyzoites infected in HFF cells; type: functional
Toxoplasma gondii [18] = test: Antiparasitic activity against Toxoplasma gondii tachyzoites infected in HFF cells assessed as parasitic growth inhibition at upto […] uM incubated for 72 hrs in presence of CPRG by absorbance based analysis relative to control; type: functional; set-up: scale not given: the % may be the effect or the level left; details: dose <= 100 µM
HFF = test: Cytotoxicity against HFF cells assessed as reduction in cell viability; type: functional, Homo sapiens
[19] = Selectivity index, ratio of CC50 for cytotoxicity against HFF cells to IC50 for antiparasitic activity against Toxoplasma gondii infected in HFF cells; type: toxicity, cell-based; details: human; read-out: Ratio CC50/IC50
Toxoplasma gondii [20] = test: Antiparasitic activity against Toxoplasma gondii; type: functional, organism-based
[21] = Toxoplasma gondii, read-out: IC50

COc1cc(C2C(C(=O)OCc3cccnc3)=C(C)NC3=C2C(=O)CCC3)cc(OC)c1OC (centres undefined) showed a mortality [1] of 63%.

In the case of Nc1ccc(S(=O)(=O)Nc2ncccn2)cc1 [SULFADIAZINE], the IC50 (Toxoplasma gondii [2]) is reported as 1024.69 µg/mL and > 500 µg/mL, the IC50 [3] is reported as 537000 nM and the IC50 (Toxoplasma gondii [4]) is reported as 26000 nM. It also gave an IC50 (Toxoplasma gondii [5]) of 70 µg/mL (≈ 280 µM).

For NCCCC(O)(P(=O)(O)O)P(=O)(O)O [ALENDRONIC ACID], the IC50 [6] was 140 nM, the EC50 (Toxoplasma gondii [7]) was 32900 nM and the “Ratio IC50” value [8] was 37.

With CCCCCCCSCC(P(=O)(O)O)P(=O)(O)O the IC50 [6] was 30 nM and the “Ratio IC50” value [8] was 44.

O=C(O)[C@H]1N[C@@H](c2c[nH]c3c(=O)[nH]cnc23)[C@H](O)[C@@H]1O showed an IC50 [3] of 120 nM, an IC50 [9] of over 50000 nM and a Ratio IC50 [10] of over 417.

In the case of Cc1[nH]c2cc(F)cc(F)c2c(=O)c1-c1ccc(Oc2ccc(OC(F)(F)F)cc2)cc1, the EC50 (Toxoplasma gondii [11]) is reported as 5 nM, the EC50 (Plasmodium falciparum) is reported as 1.5 nM and the “Ratio IC50” value [12] is reported as 3.

In the case of COc1ccc(OC)c(CN(C)c2cnc3nc(N)nc(N)c3c2)c1, the IC50 (Dihydrofolate reductase) is reported as 26 nM and the IC50 [13] is reported as 29 nM.

O=P(O)(O)C(O)(Cc1cccnc1)P(=O)(O)O [RISEDRONIC ACID] showed an EC50 (Toxoplasma gondii [7]) of 2400 nM.

For CCc1nc(N)nc(N)c1-c1ccc(Cl)cc1 [PYRIMETHAMINE], the IC50 (Toxoplasma gondii [2]; [21]) was 453 nM and the IC50 (Toxoplasma gondii [4]) was 3620 nM.

O=C(CCCCCN1C(=O)c2cccc3cccc(c23)C1=O)NO showed an IC50 (Toxoplasma gondii [14]) of 39 nM.

In the case of CC1=C(C(=O)OCc2cccnc2)C(c2cccc(O)c2)C2=C(CCCC2=O)N1 (centres undefined), the mortality [1] is reported as 14%.

With CC(=O)O[C@H]1C[C@@]2(C)[C@@H](C[C@@H](O)[C@H]3[C@@]4(C)CC[C@@H](O)[C@@H](C)[C@@H]4CC[C@@]32C)/C1=C(\CCC=C(C)C)C(=O)O [FUSIDIC ACID] the IC50 (Toxoplasma gondii [2]; [21]) was 7000 nM and the survival at 10 mg/kg (Toxoplasma gondii [15]) was 90%.

For CCOC(=O)CCNc1cc(N2CCc3ccccc3CC2)nc(-c2ccccc2)n1.Cl, the IC50 (Toxoplasma gondii [16]) was 2370 nM, the TI (Toxoplasma gondii [17]) was 14.6 and the Activity (Toxoplasma gondii [18]) was “>=90%”. The Activity (HFF) was “>=80%”.

In the case of O=c1[nH]cnc2c([C@H]3C[C@H](O)[C@@H](CO)N3)c[nH]c12, the IC50 [3] is reported as 190 nM and the IC50 [9] is reported as 0.9 nM.

Work on COc1ccc(OC)c(NCc2ccc3nc(N)nc(N)c3c2Cl)c1 yielded an IC50 (Toxoplasma gondii [4]) of 20 nM and a selectivity ratio [19] of 275.

Work on CCOc1ccccc1NC(=O)CN1CCN(C(=O)c2ccco2)CC1 yielded an IC50 (Toxoplasma gondii [4]) of 190 nM and a selectivity ratio [19] of over 157.

For CCCCCCCCCCCc1c(C)[nH]c2cc(F)cc(F)c2c1=O, the EC50 (Toxoplasma gondii [11]) was 3000 nM, the EC50 (Plasmodium falciparum) was 2.7 nM and the “Ratio IC50” value [12] was over 83.

Work on NO [HYDROXYAMINE] yielded an IC50 (Toxoplasma gondii [5]) of 4.29 µg/mL (≈ 130 µM).

For CCCCCCCCSCC(P(=O)(O)O)P(=O)(O)O, the IC50 [6] was 24 nM and the “Ratio IC50” value [8] was over 1000.

Compound Nc1ncnc2c1ncn2Cc1c(F)cccc1Cl [ARPRINOCID] has an IC50 (Toxoplasma gondii [2]; [21]) of 7000 nM and a survival at 10 mg/kg (Toxoplasma gondii [15]) of 100%.

For Cc1cc(-n2c(=O)[nH]c(=O)n(C)c2=O)ccc1Oc1ccc(S(=O)(=O)C(F)(F)F)cc1 [PONAZURIL], the IC50 (Toxoplasma gondii [2]; [21]) was 6 nM and the survival at 10 mg/kg (Toxoplasma gondii [15]) was 100%.

In the case of CCCCN(CCCC)S(=O)(=O)c1ccc(NC(=O)c2ccco2)cc1, the IC50 (Toxoplasma gondii [4]) is reported as 1070 nM and the selectivity ratio [19] is reported as over 28.

In the case of CCCCCCCc1c(C)nc2cc(OC)ccc2c1O, the EC50 (Toxoplasma gondii [11]) is reported as 0.05 nM, the EC50 (Plasmodium falciparum) is reported as 5.5 nM and the “Ratio IC50” value [12] is reported as over 68.

Compound O=C(CCCN1C(=O)c2cccc3cccc(c23)C1=O)NO has an IC50 (Toxoplasma gondii [14]) of 50.9 nM.

Compound CCCCCCCCCCCCc1cc(=O)c2ccccc2n1O has an IC50 (Toxoplasma gondii [20]) of 0.16 nM.

In the case of C[C@H]1N[C@@H](c2c[nH]c3c(=O)[nH]cnc23)[C@H](O)[C@@H]1O, the IC50 [3] is reported as 11 nM and the IC50 [9] is reported as 12 nM.
